Data: ChEMBL document CHEMBL5252512, “Recent Progress in the Development of HIV-1 Protease Inhibitors for the Treatment of HIV/AIDS” (J Med Chem, 2016)

Assays:
[1] = AUC in rat at 10 mg/kg, po; assay type: ADME, organism-based; set-up: dose 10 mg/kg, route po; conditions: in vivo
[2] = Half life in rat at 1 mg/kg, iv; assay type: ADME, organism-based; conditions: in vivo
[3] = Clearance in dog at 1 mg/kg, iv; assay type: ADME, organism-based, Canis lupus familiaris; conditions: in vivo
[4] = Half life in dog at 1 mg/kg, iv; assay type: ADME, organism-based, Canis lupus familiaris; conditions: in vivo
[5] = Clearance in rat at 2 mg/kg, iv; assay type: ADME, organism-based; conditions: in vivo
[6] = test system: Human immunodeficiency virus 1; assay: Ratio of EC50 for antiviral activity against HIV1-MM to EC50 for antiviral activity against wild type HIV1 ERS104pre; assay type: functional
[7] = test system: Human immunodeficiency virus 1; assay: Antiviral activity against multidrug-resistant HIV1-B infected in phytohemagglutinin-activated human PBMC cells assessed as inhibition of virus-induced cytopathic effect measured after 7 days by MTT assay; assay type: functional, organism-based; conditions: Human immunodeficiency virus 1, B, 168 h
[8] = test system: Human immunodeficiency virus 1; assay: Ratio of EC50 for antiviral activity against HIV1-JSL to EC50 for antiviral activity against wild type HIV1 ERS104pre; assay type: functional
[9] = test system: Human immunodeficiency virus 1; assay: Antiviral activity against multidrug-resistant HIV1-JSL infected in phytohemagglutinin-activated human PBMC cells assessed as inhibition of virus-induced cytopathic effect measured after 7 days by MTT assay; assay type: functional, organism-based; conditions: Human immunodeficiency virus 1, JSL, 168 h
[10] = test system: Human immunodeficiency virus 1; assay: Ratio of EC50 for antiviral activity against HIV1-C to EC50 for antiviral activity against wild type HIV1 ERS104pre; assay type: functional
[11] = test system: Human immunodeficiency virus 1; assay: Antiviral activity against darunavir-resistant HIV1 10P infected in phytohemagglutinin-activated human PBMC cells assessed as inhibition of virus-induced cytopathic effect measured after 7 days by MTT assay; assay type: functional, organism-based; conditions: Human immunodeficiency virus 1, 10P, 168 h
[12] = molecular target: T1, Human immunodeficiency virus type 1 protease (Human immunodeficiency virus 1, UniProt Q72874); assay: Binding affinity to HIV1 protease assessed as inhibition constant
[13] = test system: Human immunodeficiency virus 1; assay: Antiviral activity against multidrug-resistant HIV1-C infected in phytohemagglutinin-activated human PBMC cells assessed as inhibition of virus-induced cytopathic effect measured after 7 days by MTT assay; assay type: functional, organism-based; conditions: Human immunodeficiency virus 1, C, 168 h
[14] = test system: Human immunodeficiency virus 1; assay: Ratio of EC50 for antiviral activity against HIV1-TM to EC50 for antiviral activity against wild type HIV1 ERS104pre; assay type: functional
[15] = test system: Human immunodeficiency virus 1; assay: Antiviral activity against multidrug-resistant HIV1-G infected in phytohemagglutinin-activated human PBMC cells assessed as inhibition of virus-induced cytopathic effect measured after 7 days by MTT assay; assay type: functional, organism-based; conditions: Human immunodeficiency virus 1, G, 168 h
[16] = test system: Human immunodeficiency virus 1; assay: Antiviral activity against darunavir-resistant HIV1 20P infected in phytohemagglutinin-activated human PBMC cells assessed as inhibition of virus-induced cytopathic effect measured after 7 days by MTT assay; assay type: functional, organism-based; conditions: Human immunodeficiency virus 1, 20P, 168 h
[17] = test system: Human immunodeficiency virus 1; assay: Antiviral activity against wild type HIV1 ERS104pre infected in human PBMC cells assessed as inhibition of virus-induced cytopathic effect measured after 7 days by MTT assay; assay type: functional, organism-based; conditions: Human immunodeficiency virus 1, ERS104pre, 168 h
[18] = test system: Human immunodeficiency virus 1; assay: Antiviral activity against multidrug-resistant HIV1-TM infected in phytohemagglutinin-activated human PBMC cells assessed as inhibition of virus-induced cytopathic effect measured after 7 days by MTT assay; assay type: functional, organism-based; conditions: Human immunodeficiency virus 1, TM, 168 h
[19] = test system: Human immunodeficiency virus 1; assay: Ratio of EC50 for antiviral activity against HIV1-G to EC50 for antiviral activity against wild type HIV1 ERS104pre; assay type: functional
[20] = test system: Human immunodeficiency virus 1; assay: Ratio of EC50 for antiviral activity against darunavir-resistant HIV1 10P to EC50 for antiviral activity against wild type HIV1 ERS104pre; assay type: functional
[21] = test system: Human immunodeficiency virus 1; assay: Antiviral activity against multidrug-resistant HIV1-MM infected in phytohemagglutinin-activated human PBMC cells assessed as inhibition of virus-induced cytopathic effect measured after 7 days by MTT assay; assay type: functional, organism-based; conditions: Human immunodeficiency virus 1, MM, 168 h
[22] = test system: Human immunodeficiency virus 1; assay: Ratio of EC50 for antiviral activity against darunavir-resistant HIV1 20P to EC50 for antiviral activity against wild type HIV1 ERS104pre; assay type: functional
[23] = test system: Human immunodeficiency virus 1; assay: Ratio of EC50 for antiviral activity against HIV1-B to EC50 for antiviral activity against wild type HIV1 ERS104pre; assay type: functional
[24] = molecular target: T1, Human immunodeficiency virus type 1 protease; assay: Binding affinity to wild-type HIV1 protease expressed in Escherichia coli BL21(DE3) assessed as inhibition constant using (2-aminobenzoyl)Thr-Ile-Nle-(p-nitro)Phe-Gln-Arg peptide as substrate preincubated for 15 mins followed by substrate addition by fluorimeter analysis
[25] = Lipophilicity, logD of the compound in Octanol/buffer by shake-flask method; assay type: physicochemical
[26] = test system: Human immunodeficiency virus 1; assay: Ratio of EC50 for antiviral activity against HIV1-T21217 to EC50 for antiviral activity against wild type HIV1 r13205; assay type: functional
[27] = test system: Human immunodeficiency virus 1; assay: Ratio of EC50 for antiviral activity against HIV1-T13572 to EC50 for antiviral activity against wild type HIV1 r13205; assay type: functional
[28] = Lipophilicity, logP of the compound in Octanol/water by shake-flask method; assay type: physicochemical
[29] = test system: Human immunodeficiency virus 1; assay: Antiviral activity against HIV1 T21055 infected in human MT4 cells expressing LTR and EGFP assessed as inhibition of virus-induced cytopathic effect by fluorescence microscopic analysis; assay type: functional, organism-based; conditions: Human immunodeficiency virus 1, T21055, MT4
[30] = test system: Human immunodeficiency virus 1; assay: Ratio of EC50 for antiviral activity against HIV1-T13436 to EC50 for antiviral activity against wild type HIV1 r13205; assay type: functional
[31] = test system: Human immunodeficiency virus 1; assay: Antiviral activity against wild type HIV1 r13205 infected in human MT4 cells expressing LTR and EGFP assessed as inhibition of virus-induced cytopathic effect by fluorescence microscopic analysis; assay type: functional, organism-based; conditions: Human immunodeficiency virus 1, r13205, MT4
[32] = test system: Human immunodeficiency virus 1; assay: Antiviral activity against HIV1 T13632 infected in human MT4 cells expressing LTR and EGFP assessed as inhibition of virus-induced cytopathic effect by fluorescence microscopic analysis; assay type: functional, organism-based; conditions: Human immunodeficiency virus 1, T13632, MT4
[33] = test system: Human immunodeficiency virus 1; assay: Ratio of EC50 for antiviral activity against HIV1-T20760 to EC50 for antiviral activity against wild type HIV1 r13205; assay type: functional
[34] = test system: Human immunodeficiency virus 1; assay: Antiviral activity against HIV1 T13717 infected in human MT4 cells expressing LTR and EGFP assessed as inhibition of virus-induced cytopathic effect by fluorescence microscopic analysis; assay type: functional, organism-based; conditions: Human immunodeficiency virus 1, T13717, MT4
[35] = test system: Human immunodeficiency virus 1; assay: Antiviral activity against HIV1 T21217 infected in human MT4 cells expressing LTR and EGFP assessed as inhibition of virus-induced cytopathic effect by fluorescence microscopic analysis; assay type: functional, organism-based; conditions: Human immunodeficiency virus 1, T21217, MT4
[36] = test system: Human immunodeficiency virus 1; assay: Antiviral activity against HIV1 T20760 infected in human MT4 cells expressing LTR and EGFP assessed as inhibition of virus-induced cytopathic effect by fluorescence microscopic analysis; assay type: functional, organism-based; conditions: Human immunodeficiency virus 1, T20760, MT4
[37] = test system: Human immunodeficiency virus 1; assay: Antiviral activity against HIV1 T13436 infected in human MT4 cells expressing LTR and EGFP assessed as inhibition of virus-induced cytopathic effect by fluorescence microscopic analysis; assay type: functional, organism-based; conditions: Human immunodeficiency virus 1, T13436, MT4
[38] = test system: Human immunodeficiency virus 1; assay: Antiviral activity against HIV1 T13572 infected in human MT4 cells expressing LTR and EGFP assessed as inhibition of virus-induced cytopathic effect by fluorescence microscopic analysis; assay type: functional, organism-based; conditions: Human immunodeficiency virus 1, T13572, MT4
[39] = test system: Human immunodeficiency virus 1; assay: Ratio of EC50 for antiviral activity against HIV1-T21055 to EC50 for antiviral activity against wild type HIV1 r13205; assay type: functional
[40] = test system: Human immunodeficiency virus 1; assay: Ratio of EC50 for antiviral activity against HIV1-T13632 to EC50 for antiviral activity against wild type HIV1 r13205; assay type: functional
[41] = test system: Human immunodeficiency virus 1; assay: Ratio of EC50 for antiviral activity against HIV1-T13717 to EC50 for antiviral activity against wild type HIV1 r13205; assay type: functional
[42] = test system: Human immunodeficiency virus 1; assay: Antiviral activity against HIV1 LAI infected in human MT2 cells assessed as inhibition of virus-induced cytopathic effect by MTT assay; assay type: functional, organism-based; conditions: Human immunodeficiency virus 1, LAI
[43] = Cytotoxicity against human MT2 cells assessed as reduction in cell viability by MTT assay; assay type: toxicity, cell-based
[44] = Apparent permeability in rat astrocytes/rat pericytes/monkey endothelial cells triple cell co-culture system incubated for 30 mins by spectrophotometric analysis; assay type: ADME, cell-based
[45] = Selectivity index, ratio of CC50 for human MT2 cells to IC50 for antiviral activity against HIV1 LAI; assay type: toxicity; conditions: read-out: Ratio CC50/EC50
[46] = molecular target: T1, Human immunodeficiency virus type 1 protease; assay: Binding affinity to HIV1 recombinant wild type protease expressed in Escherichia coli BL21(DE3) assessed as inhibition constant

SMILES	Ratio EC50 [6]	EC50 [7] [nM]	Ratio EC50 [8]	EC50 [9] [nM]	Ratio EC50 [10]	EC50 [11] [nM]	Ki [12] [nM]	EC50 [13] [nM]	Ratio EC50 [14]	EC50 [15] [nM]	EC50 [16] [nM]	EC50 [17] [nM]	EC50 [18] [nM]	Ratio EC50 [19]	Ratio EC50 [20]	EC50 [21] [nM]	Ratio EC50 [22]	Ratio EC50 [23]	logD [25]	logP [28]	other results
CC[C@@H](CCC[C@@H](CO)N(CCC(C)C)S(=O)(=O)c1ccc(N)cc1)NC(=O)[C@@H](NC(=O)OC)C(c1ccccc1)c1ccccc1	–	–	–	–	–	–	–	–	–	–	–	–	–	–	–	–	–	–	–	–	AUC [1]: 1.17 µM·h; half-life [2]: 2.13 h; clearance [3]: 10.1 mL/min/kg; half-life [4]: 7.4 h; clearance [5]: 48.5 mL/min/kg
COc1ccc(S(=O)(=O)N(CC(C)C)C[C@@H](O)[C@H](Cc2ccccc2)NC(=O)O[C@H]2CO[C@H]3O[C@@H]4OCC[C@@H]4[C@H]32)cc1	4	3.4	4	2.5	1	5.6	0.0059	0.8	4	2.6	30	0.6	2.1	4	9	2.5	50	6	–	–	–
COc1ccc(S(=O)(=O)N(CC(C)C)C[C@@H](O)[C@H](Cc2ccc(OCP(=O)(O)O)cc2)NC(=O)O[C@H]2CO[C@H]3OCC[C@H]32)cc1	–	–	–	–	–	–	–	–	–	–	–	–	–	–	–	–	–	–	–	–	Ki [24]: 0.0133 nM
CC(C)CN(C[C@@H](O)[C@H](Cc1ccccc1)NC(=O)O[C@H]1CO[C@H]2OCC[C@H]21)S(=O)(=O)c1ccc(N)cc1	3	21	6	> 25	2	43.4	–	5	1	7	255	3.8	4.3	2	11	10	64	7	-1.03	-0.63	Ratio EC50 [26]: 3.8; Ratio EC50 [27]: 11; EC50 [29]: 122 nM; Ratio EC50 [30]: 2.2; EC50 [31]: 22 nM; EC50 [32]: 624 nM; Ratio EC50 [33]: 1.8; EC50 [34]: 670 nM; EC50 [35]: 84 nM; EC50 [36]: 39 nM; EC50 [37]: 49 nM; EC50 [38]: 234 nM; Ratio EC50 [39]: 5.5; Ratio EC50 [40]: 28; Ratio EC50 [41]: 30
CC(C)CN(C[C@@H](O)[C@H](Cc1ccccc1)NC(=O)O[C@H]1CO[C@H]2OCC(F)(F)[C@H]21)S(=O)(=O)c1ccc(N)cc1	1	11	7	20	1	–	0.0058	2	2	4	–	2.7	4	2	–	3	–	3	-1.01	-0.83	EC50 [42]: 3 nM; CC50 [43]: 37000 nM; Papp at 0.5 h [44]: 47.8 ×10⁻⁶ cm/s; selectivity ratio [45]: 12300
CC(C)CN(C[C@@H](O)[C@H](Cc1ccccc1)NC(=O)O[C@H]1CO[C@H]2OCC[C@H]21)S(=O)(=O)c1ccc(C(N)=O)cc1	–	–	–	–	–	–	–	–	–	–	–	–	–	–	–	–	–	–	–	–	Ki [46]: 0.0089 nM; EC50 [42]: 93 nM
